According to US20100267561A1, “HERBICIDAL PYRIDAZINONE DERIVATIVES” (priority 2007, published 2010):

Legend:
Format in all cases: in vivo
rice (Oryza sativa) = test: Test B flooded paddy test plant response
Method in brief: (§1)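 Rice, umbrella sedge, ducksalad and barnyardgrass at 2-leaf stage; pots flooded to 3 cm, compounds applied into paddy water, depth held throughout. Greenhouse 13 to 15 days, then visual rating vs untreated controls on 0–100 scale (0 no effect, 100 complete control); dash means no test result.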

[1] = test system: barnyardgrass (Echinochloa crus-galli); test: Test B flooded paddy test plant response
Method in brief: as §1

[2] = test system: umbrella sedge (Cyperus difformis); test: Test B flooded paddy test plant response
Method in brief: as §1

[3] = test system: ducksalad (Heteranthera limosa); test: Test B flooded paddy test plant response
Method in brief: as §1

[4] = test system: large crabgrass (Digitaria sanguinalis); test: Test A pre-/postemergence plant response
Method in brief: (§2)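 Seeds sown in loam–sand blend; test chemicals in non-phytotoxic solvent with surfactant applied preemergence as directed soil spray and, concurrently, postemergence to plants 2–10 cm tall at one- to two-leaf stage. Greenhouse ~10 days, then visual injury rating vs untreated controls on 0–100 scale (0 = no effect, 100 = complete control).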

[5] = test system: barnyardgrass (Echinochloa crus-galli); test: Test A pre-/postemergence plant response
Method in brief: as §2

corn (Zea mays) = test: Test A pre-/postemergence plant response
Method in brief: as §2

[6] = test system: giant foxtail (Setaria faberi); test: Test A pre-/postemergence plant response
Method in brief: as §2

[7] = test system: velvetleaf (Abutilon theophrasti); test: Test A pre-/postemergence plant response
Method in brief: as §2

[8] = test system: morningglory (Ipomoea coccinea); test: Test A pre-/postemergence plant response
Method in brief: as §2

[9] = test system: pigweed (Amaranthus retroflexus); test: Test A pre-/postemergence plant response
Method in brief: as §2

[10] = test system: chickweed (Stellaria media); test: Test B postemergence plant response; conditions: for Chickweed plant response rating: 8 g ai/ha, postemergence, 0-100 scale; for Plant response rating, Chickweed: Postemergence
Method in brief: (§3)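 Test compounds were applied postemergence to plants 2 to 18 cm tall (1- to 4-leaf stage). After 13 to 15 days in a greenhouse, each species was visually compared with untreated controls and rated 0 (no effect) to 100 (complete control).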

[11] = test system: windgrass (Apera spica-venti); test: Test B postemergence plant response; conditions: for Windgrass plant response rating: 8 g ai/ha, postemergence, 0-100 scale; for Plant response rating, Windgrass: Postemergence
Method in brief: as §3

[12] = test system: canarygrass (Phalaris minor); test: Test B postemergence plant response; conditions: for Canarygrass plant response rating: 8 g ai/ha, postemergence, 0-100 scale; for Plant response rating, Canarygrass: Postemergence
Method in brief: as §3

[13] = test system: winter barley (Hordeum vulgare); test: Test B postemergence plant response; conditions: for Barley plant response rating: 8 g ai/ha, postemergence, 0-100 scale; for Plant response rating, Barley: Postemergence
Method in brief: as §3

[14] = Flood (flooded paddy test), 62 g ai/ha, scale 0 to 100, 0 no effect, 100 complete control
[15] = Flood (flooded paddy test), 125 g ai/ha, scale 0 to 100, 0 no effect, 100 complete control
[16] = Flood (flooded paddy test), 250 g ai/ha, scale 0 to 100, 0 no effect, 100 complete control
[17] = Flood, 31 g ai/ha, scale 0 to 100
[18] = Postemergence, 125 g ai/ha, 0 to 100 scale, 0 no effect, 100 complete control
[19] = Postemergence, 500 g ai/ha, 0 to 100 scale, 0 no effect, 100 complete control
[20] = Preemergence, 125 g ai/ha, 0 to 100 scale (0 no effect, 100 complete control)
[21] = Preemergence, 500 g ai/ha, 0 to 100 scale (0 no effect, 100 complete control)
[22] = 31 g ai/ha, scale 0 to 100, 0 no effect, 100 complete control
[23] = 16 g ai/ha, scale 0 to 100, 0 no effect, 100 complete control
[24] = Postemergence, 31 g ai/ha, 0 to 100 scale (0 no effect, 100 complete control)
[25] = Preemergence, 31 g ai/ha, 0 to 100 scale, 0 is no effect, 100 is complete control
[26] = 62 g ai/ha, scale 0 to 100, 0 no effect, 100 complete control

CCc1cc(-c2ccc(Cl)c(Cl)c2)nn1-c1c(O)cnn(C)c1=O [Compound 20]
5: Canarygrass plant response rating [12]
70: Plant response rating, Corn (corn (Zea mays); [18]) | Plant response rating, Windgrass ([11]; 16 g ai/ha, scale 0 to 100)
50: Plant response rating, Canarygrass [12, 22]
90: Plant response rating, Crabgrass, Large [4, 20] | Plant response rating, Barnyardgrass [5, 20] | Plant response rating, Corn (corn (Zea mays); [19]) | Plant response rating, Corn (corn (Zea mays); [21]) | Plant response rating, Foxtail, Giant [6, 18] | Plant response rating, Foxtail, Giant [6, 20] | Plant response rating, Windgrass ([11]; 62 g ai/ha, scale 0 to 100)
80: Plant response rating, Crabgrass, Large [4, 18] | Plant response rating, Barnyardgrass [5, 18]
30: Plant response rating, Canarygrass ([12]; 16 g ai/ha, scale 0 to 100)
85: Plant response rating, Windgrass [11, 22]
20: Windgrass plant response rating [11]
100: Plant response rating, Crabgrass, Large [4, 19] | Plant response rating, Crabgrass, Large [4, 21] | Plant response rating, Barnyardgrass [5, 19] | Plant response rating, Barnyardgrass [5, 21] | Plant response rating, Foxtail, Giant [6, 19] | Plant response rating, Foxtail, Giant [6, 21]
0: Plant response rating, Rice (rice (Oryza sativa); [14]) | Plant response rating, Rice (rice (Oryza sativa); [15]) | Plant response rating, Rice (rice (Oryza sativa); [16]) | Plant response rating, Rice (rice (Oryza sativa); [17]) | Plant response rating, Barnyardgrass [1, 14] | Plant response rating, Barnyardgrass [1, 15] | Plant response rating, Barnyardgrass [1, 16] | Plant response rating, Barnyardgrass [1, 17] | Plant response rating, Sedge, Umbrella [2, 14] | Plant response rating, Sedge, Umbrella [2, 15] | Plant response rating, Sedge, Umbrella [2, 16] | Plant response rating, Sedge, Umbrella [2, 17] | Plant response rating, Ducksalad [3, 14] | Plant response rating, Ducksalad [3, 15] | Plant response rating, Ducksalad [3, 16] | Plant response rating, Ducksalad [3, 17] | Plant response rating, Velvetleaf [7, 18] | Plant response rating, Velvetleaf [7, 19] | Plant response rating, Velvetleaf [7, 20] | Plant response rating, Velvetleaf [7, 21] | Plant response rating, Morningglory [8, 18] | Plant response rating, Morningglory [8, 19] | Plant response rating, Morningglory [8, 20] | Plant response rating, Morningglory [8, 21] | Plant response rating, Pigweed [9, 18] | Plant response rating, Pigweed [9, 19] | Plant response rating, Pigweed [9, 20] | Plant response rating, Pigweed [9, 21] | Chickweed plant response rating [10] | Plant response rating, Chickweed ([10]; 16 g ai/ha, scale 0 to 100) | Plant response rating, Chickweed [10, 22] | Plant response rating, Chickweed ([10]; 62 g ai/ha, scale 0 to 100) | Barley plant response rating [13] | Plant response rating, Barley [13, 23] | Plant response rating, Barley [13, 22] | Plant response rating, Barley ([13]; 62 g ai/ha, scale 0 to 100)
60: Plant response rating, Corn (corn (Zea mays); [20])

CCc1cc(-c2ccc(Cl)cc2)nn1-c1c(OC(=O)OC(C)C)cnn(C)c1=O [Compound 41]
90: Plant response rating, Crabgrass, Large [4, 18] | Plant response rating, Corn (corn (Zea mays); [18]) | Plant response rating, Corn (corn (Zea mays); [20]) | Plant response rating, Foxtail, Giant [6, 18] | Plant response rating, Foxtail, Giant [6, 25]
85: Plant response rating, Sedge, Umbrella [2, 16] | Plant response rating, Windgrass [11, 26]
75: Plant response rating, Barnyardgrass [1, 14]
40: Plant response rating, Ducksalad [3, 15]
50: Plant response rating, Rice (rice (Oryza sativa); [15])
0: Plant response rating, Sedge, Umbrella [2, 14] | Plant response rating, Sedge, Umbrella [2, 15] | Plant response rating, Sedge, Umbrella [2, 17] | Plant response rating, Ducksalad [3, 14] | Plant response rating, Ducksalad [3, 17] | Plant response rating, Velvetleaf [7, 24] | Plant response rating, Velvetleaf [7, 18] | Plant response rating, Velvetleaf [7, 25] | Plant response rating, Velvetleaf [7, 20] | Plant response rating, Morningglory [8, 24] | Plant response rating, Morningglory [8, 18] | Plant response rating, Morningglory [8, 25] | Plant response rating, Morningglory [8, 20] | Plant response rating, Pigweed [9, 24] | Plant response rating, Pigweed [9, 18] | Plant response rating, Pigweed [9, 25] | Plant response rating, Pigweed [9, 20] | Chickweed plant response rating [10] | Plant response rating, Chickweed ([10]; 16 g ai/ha, scale 0 to 100) | Plant response rating, Chickweed [10, 22] | Plant response rating, Chickweed [10, 26] | Plant response rating, Canarygrass ([12]; 16 g ai/ha, scale 0 to 100) | Plant response rating, Canarygrass [12, 22] | Plant response rating, Canarygrass [12, 26] | Plant response rating, Barley [13, 23] | Plant response rating, Barley [13, 22] | Plant response rating, Barley [13, 26]
15: Plant response rating, Rice (rice (Oryza sativa); [17])
100: Plant response rating, Crabgrass, Large [4, 20] | Plant response rating, Barnyardgrass [5, 18] | Plant response rating, Barnyardgrass [5, 25] | Plant response rating, Barnyardgrass [5, 20] | Plant response rating, Foxtail, Giant [6, 20]
95: Plant response rating, Barnyardgrass [1, 16]
30: Plant response rating, Corn (corn (Zea mays); [25]) | Windgrass plant response rating [11]
60: Plant response rating, Barnyardgrass [1, 17] | Plant response rating, Corn (corn (Zea mays); [24]) | Plant response rating, Windgrass ([11]; 16 g ai/ha, scale 0 to 100)
70: Plant response rating, Ducksalad [3, 16] | Plant response rating, Foxtail, Giant [6, 24]
80: Plant response rating, Rice (rice (Oryza sativa); [16]) | Plant response rating, Barnyardgrass [1, 15] | Plant response rating, Crabgrass, Large [4, 25] | Plant response rating, Barnyardgrass [5, 24]
20: Plant response rating, Rice (rice (Oryza sativa); [14]) | Plant response rating, Crabgrass, Large [4, 24]

COC(=O)Oc1cnn(C)c(=O)c1-n1nc(-c2ccc(Cl)cc2)cc1C [Compound 33]
50: Plant response rating, Ducksalad [3, 16] | Plant response rating, Windgrass ([11]; 16 g ai/ha, scale 0 to 100)
75: Plant response rating, Rice (rice (Oryza sativa); [15])
70: Plant response rating, Windgrass [11, 26]
35: Plant response rating, Sedge, Umbrella [2, 15] | Plant response rating, Canarygrass ([12]; 16 g ai/ha, scale 0 to 100)
80: Plant response rating, Rice (rice (Oryza sativa); [16]) | Plant response rating, Canarygrass [12, 22]
60: Plant response rating, Barnyardgrass [1, 14] | Plant response rating, Sedge, Umbrella [2, 16] | Plant response rating, Corn (corn (Zea mays); [24])
90: Plant response rating, Crabgrass, Large [4, 24] | Plant response rating, Crabgrass, Large [4, 25] | Plant response rating, Barnyardgrass [5, 24] | Plant response rating, Corn (corn (Zea mays); [18]) | Plant response rating, Corn (corn (Zea mays); [20]) | Plant response rating, Foxtail, Giant [6, 24]
0: Plant response rating, Sedge, Umbrella [2, 17] | Plant response rating, Ducksalad [3, 14] | Plant response rating, Ducksalad [3, 17] | Plant response rating, Velvetleaf [7, 24] | Plant response rating, Velvetleaf [7, 18] | Plant response rating, Velvetleaf [7, 25] | Plant response rating, Velvetleaf [7, 20] | Plant response rating, Morningglory [8, 24] | Plant response rating, Morningglory [8, 18] | Plant response rating, Morningglory [8, 25] | Plant response rating, Morningglory [8, 20] | Plant response rating, Pigweed [9, 24] | Plant response rating, Pigweed [9, 18] | Plant response rating, Pigweed [9, 20] | Chickweed plant response rating [10] | Plant response rating, Chickweed ([10]; 16 g ai/ha, scale 0 to 100) | Plant response rating, Chickweed [10, 22] | Plant response rating, Chickweed [10, 26] | Canarygrass plant response rating [12] | Barley plant response rating [13]
25: Plant response rating, Barley [13, 23]
85: Plant response rating, Barnyardgrass [1, 15]
100: Plant response rating, Barnyardgrass [1, 16] | Plant response rating, Crabgrass, Large [4, 18] | Plant response rating, Crabgrass, Large [4, 20] | Plant response rating, Barnyardgrass [5, 18] | Plant response rating, Barnyardgrass [5, 25] | Plant response rating, Barnyardgrass [5, 20] | Plant response rating, Foxtail, Giant [6, 18] | Plant response rating, Foxtail, Giant [6, 25] | Plant response rating, Foxtail, Giant [6, 20]
65: Plant response rating, Rice (rice (Oryza sativa); [14])
30: Plant response rating, Rice (rice (Oryza sativa); [17]) | Plant response rating, Barnyardgrass [1, 17] | Plant response rating, Corn (corn (Zea mays); [25]) | Plant response rating, Barley [13, 22] | Plant response rating, Barley [13, 26]
20: Plant response rating, Sedge, Umbrella [2, 14]
40: Plant response rating, Ducksalad [3, 15]
10: Windgrass plant response rating [11]
